Experimental findings from a melting point compilation (Tetko et al.; mined from patent text by program, amines drawn as free bases though some values may be those of a salt) are described below.

Turning to `CCCc1c(O)c(C(C)=O)cc(I)c1OCC(O)COc1ccc2c(=O)cc(C(=O)O)oc2c1CCC` (stereo unspecified), the melting point fell in the range of 173 to 176 °C. In the case of `COc1cc(-c2nc3ccccc3n2Cc2ccc(Cl)cc2Cl)cc(OC)c1OC`, the melting point amounted to 186 °C. In turn, `CC(COc1ccc(CC2SC(=O)NC2=O)cc1)NCC(O)CN(C)c1ccccc1` (stereo unspecified) yielded a melting point of 115 to 125 °C. The molecule `CN(C)c1nnc(SCC(=O)C23CC4CC(CC(C4)C2)C3)s1` gave a melting point of 150 to 151 °C. Regarding `COc1cc2c(Nc3ccc(Cl)cc3F)ncnc2cc1O`, the melting point fell in the range of 141 to 143 °C. `CN(Cc1ccccc1)c1c(-c2ccc(S(C)(=O)=O)cc2)cnn(-c2cccc(Cl)c2)c1=O` came in with a melting point of 60 to 85 °C. On to `CC(C)(C)c1ccc(C#N)cc1N`, for which the melting point was in the range of 94.5 to 95 °C. To `COc1ccc(C2=NN(c3cc(C)c4c(C)nn(C)c4n3)C(=O)[C@H]3CC=CC[C@@H]23)cc1Cl` (relative stereo) belongs 217 to 219 °C; to `Cc1sc2nc(N)[nH]c(=O)c2c1-c1ccc(F)cc1`, 360 to 362 °C; to `CN1C(=O)C(c2ccccc2)Oc2cccc3nc4c(c1c23)CCCC4` (stereo unspecified), 188 to 189 °C. `CN1CCN(C2=Nc3cc(Br)ccc3Nc3nn(C)nc32)CC1` yielded a melting point of 183 to 184 °C. For `CC(O)c1nccc2ccccc12` (stereo unspecified), the melting point was in the range of 60 to 62 °C. As to `CC(C)(CCCN)C(Cc1c[nH]c([N+](=O)[O-])n1)=NO`, the melting point was 136 to 137 °C. `CCn1ncc2c(NCC3CCCCC3)c3cc(C(=O)OC)ccc3nc21` showed a melting point of 275 to 277 °C. `Nc1ccc(C=CC=CC=CC=Cc2ccc(N)cc2)cc1`: the melting point fell in the range of 262 to 264 °C. To `O=C1C(=Cn2ccnc2)CSc2ccc(Cl)cc21` belongs 139 to 141 °C; to `ON=C(Cc1cnccn1)c1ccc(Cl)cc1`, 134 °C; to `CCOC(=O)c1csc(-c2ccc3cc(O)c(C45CC6CC(CC(C6)C4)C5)cc3c2)c1`, 199 to 200 °C. `CCOC(=O)Cc1csc(-c2cc3cccc(NS(=O)(=O)c4cccs4)c3[nH]2)n1` gave a melting point of 161 to 162 °C. In turn, `Oc1cc(O)c2cc(-c3cc(F)cc(F)c3)oc2c1` yielded a melting point of 208 to 209 °C.

With `CC1(C)CC(=O)c2c(Sc3ccccc3)sc(C(=O)N3CCCC3)c2C1`, the melting point was 140 °C. The same measure for `COCCCNC1(c2ccccc2Cl)C(=O)N(S(=O)(=O)c2ccc3c(c2)CCN3C(=O)OC)c2ccc(Cl)cc21` (stereo unspecified): 98 °C; for `CC(C)(C)OC(=O)NCCNC(=O)c1cc(Cl)cc(Cl)n1`: 126 to 127 °C; for `CC(C)(C)c1cc(C(=O)Nc2cc(Cl)c(Cl)cc2NC(=O)NC23CC4CC(CC(C4)C2)C3)cc(C(C)(C)C)c1O`: 203 to 207 °C.

In turn, `Cc1noc(NS(=O)(=O)c2cc(Br)c(Cl)s2)c1Br` returned a melting point of 143 to 145 °C. Take `Cc1cc2c(-c3ccccc3)c(CO)n(C)c(=O)c2cc1C`: the melting point was 209 to 210 °C.

As for `CC(Nc1nc(Oc2cccc3[nH]c(=O)c(N)nc23)cc(-c2ccc(C(F)(F)F)cc2)n1)c1ccc(F)cc1` (stereo unspecified), the melting point was determined as 434 °C. Turning to `O=C(O)C1=Cc2c(ccc(Cl)c2-c2ccco2)OC1C(F)(F)F` (stereo unspecified), the melting point fell in the range of 191 to 193 °C. Molecule `C=CCNC(=O)Cc1c[nH]c2ccc(CCS(=O)(=O)NC)cc12` registered a melting point of 123 to 125 °C. Molecule `O=S1CCOCC1c1cccnc1` (stereo unspecified) registered a melting point of 74 to 76 °C. `COCc1nc2c(N)nc3ccccc3c2s1` yielded a melting point of 183 to 185 °C. On to `CCN(CC)c1ccc(/C=C/C(=O)CC(=O)/C=C/c2ccc3cc[nH]c3c2)c(OCc2ccccn2)c1`, for which the melting point was in the range of 92 to 96 °C.

In turn, `COC(=O)NS(=O)(=O)Nc1c(C(C)C)cccc1C(C)C` came in with a melting point of 152 to 155 °C. To `CCCCCCCN(CC)C(=O)CCC(=O)c1ccc(NS(C)(=O)=O)cc1` belongs 100 to 102 °C; to `CC(=O)Nc1ccc2c(-c3ccccc3)c([N+](=O)[O-])oc2c1`, 212 to 214 °C; to `O=C(O)Cn1cc(Cc2cccc(OCc3ccc4ccccc4n3)c2)c2ccccc21`, 151 to 159 °C. The same measure for `CC1(C)CC(=O)c2c(C3CC3)sc(-c3nccs3)c2C1`: 103 to 105 °C; for `N#Cc1cc(F)c(N)c(Br)c1F`: 106 to 108 °C. As for `CN(Cc1ccc(NC(=O)C2=Cc3cc(-c4ccc5c(c4)CCO5)ccc3S(=O)(=O)CC2)cc1)C1CCOCC1`, the melting point lay within 214 to 216 °C.

As to `CC1(C)C(=O)N(c2ccc([N+](=O)[O-])c(C(F)(F)F)c2)C(=O)N1CCCN1C(=O)N(c2ccc([N+](=O)[O-])c(C(F)(F)F)c2)C(=O)C1(C)C`, the melting point fell in the range of 164 to 165 °C. Molecule `C=CCNc1nc(NCCC)nc2c(C)csc12` showed a melting point of 74 to 75 °C.

`CN(C)C=Cc1cc(Cl)c([N+](=O)[O-])cc1Cl` registered a melting point of 173 to 175 °C. The molecule `CC(=O)SCCc1cccc(N)n1` returned a melting point of 55 to 59 °C.

`CN(c1cccc2cc(C3=NCC4(CCN(CC(C)(C)O)CC4)S3)[nH]c12)S(=O)(=O)c1cccs1`: the melting point was determined as 191 °C. To `COC(=O)C(=C(/C)c1cc(OC)cc(OC)c1)/C(=C\c1cc(OC)cc(OC)c1)C(=O)O` belongs 137 to 140 °C. On to `CCOC(=O)CCC(=O)c1cnc2c(OC)cccc2c1NCc1ccccc1C`, for which the melting point lay in the range of 152 to 155 °C.

As for `COC(=O)c1cc(N2C(=O)C(=O)N(C(C)C)C2=O)c(F)cc1Cl`, the melting point was 106 to 108 °C. As to `CCn1cc(C(=O)O)c(=O)c2cc(F)c(N3CCN(C)C(COC(C)C)C3)cc21` (stereo unspecified), the melting point is 184 to 186 °C. The molecule `CC(C)Cn1c(=O)c2nc(-c3ccc(/C=C/C(=O)O)cc3)[nH]c2n(CC(C)C)c1=O` had a melting point of more than 300 °C. Regarding `OCc1cnc(C(O)c2cc(F)ccc2F)c(F)c1` (stereo unspecified), the melting point was in the range of 94 to 96 °C. In turn, `CSc1cc2c(cc1F)C(=O)C(=O)N2` showed a melting point of 296 °C.

Molecule `COC(=O)C(=O)c1ccccc1Nc1c(Cl)cccc1Cl` had a melting point of 124 to 126 °C. In turn, `CC(C)S(=O)(=O)C(C#N)=C(Nc1cc(C(F)(F)F)cc(C(F)(F)F)c1)NC1CCC1` came in with a melting point of 148 to 150 °C. `CCc1nc2c(N)nc3cc(OCC(=O)N4CCOCC4)ccc3c2n1CC(C)C` came in with a melting point of 219 to 220 °C. `O=C(O)c1cc(Br)c(O)c(Br)n1` yielded a melting point of 195 to 197 °C. In the case of `O=C1CCC(N2Cc3c(OCc4ccc(CCN5CCOCC5)cc4)cccc3C2=O)C(=O)N1` (stereo unspecified), the melting point lay within 230 to 232 °C. Molecule `CC(C)c1ccc(C(=O)C23CC4CC(CC(C4)C2)C3)c(C(C)C)c1OS(N)(=O)=O` displayed a melting point of 165 to 167 °C. The molecule `O=c1c2cccc3ncc(c(=O)n1CCCNS(=O)(=O)C(F)(F)F)n32` had a melting point of 124 to 125 °C. `COc1ccc2c(c1)CCC1=C2CCC2(C)C(=O)CCC12` (stereo unspecified) came in with a melting point of 110 to 120 °C. To `O=P(O)(O)Cc1ccc(CS(=O)(=O)c2ccccc2)cc1` belongs more than 280 °C; to `CN1CCN(c2cccc3c2C[C@H](NC(=O)c2ccc(-c4ccc(O)cc4)cc2)CC3)CC1`, 261 to 262 °C; to `CC(C)c1cccc(C(C)C)c1NC(=O)NCC(c1ccccc1)c1ccccc1`, 175 to 176 °C. In turn, `Cc1nc(-n2ccc(OCc3ccc(F)cc3)cc2=O)sc1C(=O)NCc1ccccc1` showed a melting point of 243 to 245 °C. `O=C(Nc1nnn(CC2CC2)n1)C1c2ccccc2Oc2ccccc21` showed a melting point of 222 to 224 °C. Molecule `CN(C)Cc1cccc(CSCCNc2ncc(Cc3cccnc3)c(=O)[nH]2)c1` registered a melting point of 143 to 145 °C. `COc1ccc2cccc(NC(C)=O)c2c1` showed a melting point of 154 to 155 °C. Regarding `Cc1cc(NC(c2ccccc2)(c2ccccc2)c2ccccc2)no1`, the melting point was in the range of 196 to 199 °C. With `CN(C)c1ccc(NC(=O)C(CS)Cc2ccccc2)cc1C(=O)O` (stereo unspecified), the melting point lay within 85 to 89 °C. Take `CC(C)Cn1c(=O)n(C)c(=O)c2c(SCCCO)n(Cc3ccccc3CS(=O)(=O)c3ccccc3)nc21`: the melting point is 50 °C. `CCn1cc(C=CC(N)=O)c([N+](=O)[O-])n1` yielded a melting point of 210 to 212 °C. Molecule `CCOCc1nc2c(N)nc3ccccc3c2n1CC(C)(C)OCCS(C)(=O)=O` had a melting point of 183 to 185 °C.

The molecule `CCOC(=O)Cc1ccc(SCc2ccc(Cl)cc2C(=O)O)cc1` displayed a melting point of 109 to 112 °C. The molecule `Cc1cc(-c2cnn3c(C(F)(F)F)cc(-c4cccc(C(F)(F)F)c4)nc23)cc(C)n1` registered a melting point of 236 °C.

On to `CCCCCCCCCCCCCC=Cc1cc(C(=O)O)c[nH]1`, for which the melting point is 90 to 96 °C. `CCc1cc(OCc2ccc(-c3ccccc3C#N)cc2)c2c(n1)CCCC2`: the melting point was in the range of 147 to 148 °C. In turn, `CC(C)(C)OC(=O)N1CC[C@H]2c3c(-c4ccccc4F)cccc3N(C(=O)OC(C)(C)C)[C@H]2CC1` (relative stereo) displayed a melting point of 166 to 169 °C. Molecule `O=C(C=Cc1ccc(Cl)c([N+](=O)[O-])c1)N1CCc2c([nH]c3ccccc23)C1c1ccc2c(c1)OCO2` (stereo unspecified) registered a melting point of 240 °C. Molecule `NCCCCCNc1ncc2ncnc(Nc3ccc(F)c(Cl)c3)c2n1` returned a melting point of 153 to 155 °C. `CCCCCCCCOc1ccc(C(=O)NN)cc1` yielded a melting point of 90 °C. As for `O=C1NC(=O)C(CCCCc2ccc(O)cc2)O1` (stereo unspecified), the melting point was in the range of 151 to 152 °C. `CCC(=O)OCC=C(C)CCC=C(C)CCC=C(C)CCC=C(C)CCC=C(C)CCC=C(C)CCC=C(C)CCC=C(C)CCC=C(C)C` showed a melting point of 33 to 35 °C.

As to `O=C(O)c1ccc2[nH]cc(CCCCN3CC=C(c4ccccc4)CC3)c2c1`, the melting point is 284 to 285 °C. Consider `Cc1nc(-c2cn(CCc3ccc(F)cc3)nn2)sc1C(=O)NCc1cccnc1`, for which the melting point is 149 to 150 °C. To `CC(C)c1cccc(C(C)C)c1NC(=O)[C@H](Cc1ccccc1)NC(=O)OCC1c2ccccc2-c2ccccc21` belongs 210 to 212 °C; to `CCOCc1cnc(NC(=O)C(Cc2ccc(F)cc2)c2ccc(S(C)(=O)=O)cc2)cn1` (stereo unspecified), 99 to 100 °C; to `COc1ccc2c(c1)S(=O)(=O)NC(C)N2` (stereo unspecified), 208 to 218 °C.

A word on the melting point: it is the temperature of the solid-liquid transition.
